Source: the NIST ThermoML archive (doi:10.1021/je0601208)

Key:
[1] = xn = mol fraction of the nth substance listed
[2] = refractive index (Na D-line) (dimensionless); xn = mol fraction of the nth substance listed; settings: 100.5 kPa, Liquid, Standard Abbe refractometry

CCOC(=O)c1ccccc1 [ethyl benzoate] + CCO
Settings | refractive index, 288.15 K | refractive index, 298.15 K | refractive index, 308.15 K | refractive index, 318.15 K | surface tension liquid-gas, 288.15 K [mN/m] | surface tension liquid-gas, 298.15 K [mN/m] | surface tension liquid-gas, 308.15 K [mN/m] | surface tension liquid-gas, 318.15 K [mN/m]
[1], x1 = 0.05 | – | – | – | – | 23.9 | 23.1 | 22.2 | 21.3
[1], x1 = 0.1 | – | – | – | – | 24.7 | 23.9 | 23 | 22.1
[1], x1 = 0.15 | – | – | – | – | 25.5 | 24.6 | 23.7 | 22.8
[1], x1 = 0.2 | – | – | – | – | 26.2 | 25.3 | 24.4 | 23.5
[1], x1 = 0.25 | – | – | – | – | 26.9 | 26 | 25 | 24.1
[1], x1 = 0.3 | – | – | – | – | 27.5 | 26.6 | 25.6 | 24.7
[1], x1 = 0.35 | – | – | – | – | 28.1 | 27.2 | 26.1 | 25.3
[1], x1 = 0.4 | – | – | – | – | 28.7 | 27.7 | 26.7 | 25.8
[1], x1 = 0.45 | – | – | – | – | 29.2 | 28.3 | 27.2 | 26.3
[1], x1 = 0.5 | – | – | – | – | 29.7 | 28.7 | 27.7 | 26.8
[1], x1 = 0.55 | – | – | – | – | 30.2 | 29.2 | 28.1 | 27.3
[1], x1 = 0.6 | – | – | – | – | 30.7 | 29.7 | 28.6 | 27.8
[1], x1 = 0.65 | – | – | – | – | 31.2 | 30.2 | 29.1 | 28.3
[1], x1 = 0.7 | – | – | – | – | 31.8 | 30.8 | 29.6 | 28.8
[1], x1 = 0.75 | – | – | – | – | 32.3 | 31.3 | 30.1 | 29.3
[1], x1 = 0.8 | – | – | – | – | 32.9 | 31.9 | 30.6 | 29.8
[1], x1 = 0.85 | – | – | – | – | 33.6 | 32.5 | 31.2 | 30.4
[1], x1 = 0.9 | – | – | – | – | 34.3 | 33.2 | 31.9 | 31
[1], x1 = 0.95 | – | – | – | – | 35 | 33.9 | 32.6 | 31.8
[1], x1 = 1 | – | – | – | – | 35.7 | 34.6 | 33.3 | 32.5
[2], x1 = 0.05 | 1.38111 | 1.37682 | 1.37237 | 1.36815 | – | – | – | –
[2], x1 = 0.1 | 1.39597 | 1.39165 | 1.38717 | 1.38279 | – | – | – | –
[2], x1 = 0.15 | 1.40895 | 1.40452 | 1.39997 | 1.39551 | – | – | – | –
[2], x1 = 0.2 | 1.42035 | 1.41593 | 1.41131 | 1.40679 | – | – | – | –
[2], x1 = 0.25 | 1.43037 | 1.42598 | 1.42135 | 1.41678 | – | – | – | –
[2], x1 = 0.3 | 1.43936 | 1.43498 | 1.43033 | 1.42576 | – | – | – | –
[2], x1 = 0.35 | 1.44743 | 1.44303 | 1.4384 | 1.43378 | – | – | – | –
[2], x1 = 0.4 | 1.45479 | 1.45038 | 1.44571 | 1.44105 | – | – | – | –
[2], x1 = 0.45 | 1.46145 | 1.45702 | 1.45236 | 1.44765 | – | – | – | –
[2], x1 = 0.5 | 1.4675 | 1.46309 | 1.45841 | 1.45369 | – | – | – | –
[2], x1 = 0.55 | 1.47305 | 1.46865 | 1.46393 | 1.45918 | – | – | – | –
[2], x1 = 0.6 | 1.47816 | 1.47372 | 1.46901 | 1.46424 | – | – | – | –
[2], x1 = 0.65 | 1.48283 | 1.4784 | 1.47368 | 1.4689 | – | – | – | –
[2], x1 = 0.7 | 1.48715 | 1.48273 | 1.47801 | 1.47321 | – | – | – | –
[2], x1 = 0.75 | 1.49115 | 1.48675 | 1.48203 | 1.47724 | – | – | – | –
[2], x1 = 0.8 | 1.49488 | 1.49047 | 1.48578 | 1.48098 | – | – | – | –
[2], x1 = 0.85 | 1.4984 | 1.49401 | 1.48929 | 1.48449 | – | – | – | –
[2], x1 = 0.9 | 1.5017 | 1.49731 | 1.49257 | 1.48776 | – | – | – | –
[2], x1 = 0.95 | 1.50477 | 1.50037 | 1.49565 | 1.49086 | – | – | – | –
[2], x1 = 1 | 1.5076 | 1.50328 | 1.49863 | 1.49391 | – | – | – | –

CCCC(=O)OCCC(C)C [3-methylbutyl butanoate] + CCO
Settings | refractive index, 288.15 K | refractive index, 298.15 K | refractive index, 308.15 K | refractive index, 318.15 K | surface tension liquid-gas, 288.15 K [mN/m] | surface tension liquid-gas, 298.15 K [mN/m] | surface tension liquid-gas, 308.15 K [mN/m] | surface tension liquid-gas, 318.15 K [mN/m]
[1], x1 = 0.05 | – | – | – | – | 23.3 | 22.6 | 21.8 | 20.9
[1], x1 = 0.1 | – | – | – | – | 23.6 | 22.8 | 22 | 21.1
[1], x1 = 0.15 | – | – | – | – | 23.8 | 23 | 22.2 | 21.3
[1], x1 = 0.2 | – | – | – | – | 24 | 23.1 | 22.4 | 21.5
[1], x1 = 0.25 | – | – | – | – | 24.1 | 23.3 | 22.5 | 21.6
[1], x1 = 0.3 | – | – | – | – | 24.3 | 23.4 | 22.6 | 21.7
[1], x1 = 0.35 | – | – | – | – | 24.4 | 23.5 | 22.7 | 21.8
[1], x1 = 0.4 | – | – | – | – | 24.5 | 23.6 | 22.8 | 21.9
[1], x1 = 0.45 | – | – | – | – | 24.6 | 23.7 | 22.9 | 22
[1], x1 = 0.5 | – | – | – | – | 24.7 | 23.8 | 23 | 22.1
[1], x1 = 0.55 | – | – | – | – | 24.8 | 23.9 | 23.1 | 22.2
[1], x1 = 0.6 | – | – | – | – | 24.9 | 23.9 | 23.2 | 22.3
[1], x1 = 0.65 | – | – | – | – | 25 | 24 | 23.3 | 22.4
[1], x1 = 0.7 | – | – | – | – | 25.1 | 24.1 | 23.4 | 22.5
[1], x1 = 0.75 | – | – | – | – | 25.2 | 24.2 | 23.5 | 22.6
[1], x1 = 0.8 | – | – | – | – | 25.3 | 24.3 | 23.6 | 22.7
[1], x1 = 0.85 | – | – | – | – | 25.4 | 24.4 | 23.7 | 22.8
[1], x1 = 0.9 | – | – | – | – | 25.5 | 24.5 | 23.8 | 22.9
[1], x1 = 0.95 | – | – | – | – | 25.6 | 24.6 | 23.9 | 23
[1], x1 = 1 | – | – | – | – | 25.7 | 24.7 | 24 | 23.1
[2], x1 = 0.05 | 1.3703 | 1.36624 | 1.36195 | 1.3578 | – | – | – | –
[2], x1 = 0.1 | 1.37602 | 1.37182 | 1.36747 | 1.36327 | – | – | – | –
[2], x1 = 0.15 | 1.3808 | 1.37656 | 1.37218 | 1.36792 | – | – | – | –
[2], x1 = 0.2 | 1.38488 | 1.38059 | 1.3762 | 1.3719 | – | – | – | –
[2], x1 = 0.25 | 1.38839 | 1.38406 | 1.37967 | 1.37533 | – | – | – | –
[2], x1 = 0.3 | 1.39145 | 1.38709 | 1.38268 | 1.37832 | – | – | – | –
[2], x1 = 0.35 | 1.39415 | 1.38977 | 1.38535 | 1.38096 | – | – | – | –
[2], x1 = 0.4 | 1.39656 | 1.39216 | 1.38773 | 1.38332 | – | – | – | –
[2], x1 = 0.45 | 1.39871 | 1.39431 | 1.38987 | 1.38544 | – | – | – | –
[2], x1 = 0.5 | 1.40065 | 1.39624 | 1.3918 | 1.38736 | – | – | – | –
[2], x1 = 0.55 | 1.4024 | 1.39798 | 1.39354 | 1.3891 | – | – | – | –
[2], x1 = 0.6 | 1.40399 | 1.39956 | 1.39513 | 1.39067 | – | – | – | –
[2], x1 = 0.65 | 1.40543 | 1.401 | 1.39656 | 1.3921 | – | – | – | –
[2], x1 = 0.7 | 1.40673 | 1.4023 | 1.39786 | 1.3934 | – | – | – | –
[2], x1 = 0.75 | 1.40793 | 1.40349 | 1.39905 | 1.39459 | – | – | – | –
[2], x1 = 0.8 | 1.40902 | 1.40458 | 1.40015 | 1.39569 | – | – | – | –
[2], x1 = 0.85 | 1.41003 | 1.40559 | 1.40116 | 1.3967 | – | – | – | –
[2], x1 = 0.9 | 1.41096 | 1.40652 | 1.4021 | 1.39763 | – | – | – | –
[2], x1 = 0.95 | 1.41181 | 1.40737 | 1.40296 | 1.39849 | – | – | – | –
[2], x1 = 1 | 1.41259 | 1.40815 | 1.40374 | 1.39927 | – | – | – | –
